Experimental data reported in patent US11654126B2, “Method of inhibiting the proliferation of T and/or B lymphocytes via dimethylarginine derivatives and lymphocytes proliferation inhibitor” (GUANGZHOU MEDICAL UNIVERSITY, priority 2019, dated 2023).
“Also recorded” adds a separate entry of the source.

Assays:
[1] = system: mouse T cells; test: Mouse T cell proliferation assay (anti-CD3/CD28 beads, CellTrace Violet, flow cytometry); type: cell-based; details: 1 μM and 5 μM; for survival rate of cells / number of divided T cells: 3 days of stimulation, vs control group; for survival rate of cells: FIG. 1A; for number of divided T cells: FIG. 1B; for proliferation of mouse T cells: P<0.001
Method: Total splenic T cells were isolated by StemCell isolation kit: From female 6-8 weeks old C57BL mice, spleens were harvested, mechanically disrupted, and incubated with a biotinylated antibody cocktail consisting of antibodies to B220, CD11b, CD11c, CD16/32, CD19, CD25, CD105, NK1.1, and TCRγδ (StemCell). After a wash step, cells were incubated with streptavidin-coated magnetic nanoparticles (StemCell). CD3^+ cells were then isolated by applying a magnetic field and collecting the unbound cells.
The total T cells obtained in step 1 were labeled with the proliferation indicator dye CellTrace Violet according to the manufacturer's protocol, and then seeded in 96-well round bottom cell culture plates at 2×10^5 per well, next the cells were stimulated with anti-CD3 and anti-CD28 antibody coated magnetic beads (Gibco Dynabeads mouse T-activator CD3/CD28 for T-cell expansion and activation) with the beads to cells ratio of 1:4, and then expanded in RPMI-1640 medium up to 4 days, and dilution of CellTrace Violet was then evaluated by flow cytometry.
Experimental group: different concentrations of ADMA or SDMA were added (ADMA and SDMA dissolved in sterile endotoxin-free water, and the concentration of the storage solution is 0.5 mM); Control group: the same volume of sterile endotoxin-free water was added without ADMA or SDMA.

[2] = system: mouse B cells; test: Mouse B cell proliferation assay (splenocytes, IL-4 + anti-IgM, CellTrace Violet); type: cell-based; details: 5 μM; for B cells proliferation: P<0.01; for number of live B cells / number of divided B cells: after 4 days; for number of live B cells: FIG. 3A; for number of divided B cells: FIG. 3B
Method: Spleens were harvested, mechanically disrupted, and resuspend in RPMI 1640 complete medium (10% FBS).
Total splenocytes were then labeled with the proliferation dye CellTrace Violet according to the manufacturer's protocol. Then splenocytes (1×10^5 cells per well in flat bottom 96 well plate) were stimulated with recombinant human IL-4 ([…] and α-mouse IgM (10 μg/ml), and expanded in RPMI1640 medium up to 5 days. Dilution of CellTrace Violet was then evaluated by flow cytometry. (Note; splenocytes contain T cells and monocytes, which will die off during the assay period.)
Experimental group: ADMA or SDMA (5 μM) was added (ADMA and SDMA dissolved in sterile endotoxin-free water, the storage solution concentration is 0.5 mM). Control group: the same volume of sterile endotoxin-free water without ADMA or SDMA was added.

[3] = system: activated human T cells; test: Proliferation of activated human T cells (compound added 24 h after anti-CD3/CD28 stimulation); type: cell-based; details: ADMA 1 μM; for inhibitory effect compared with other substances / number of live cells / T cell proliferation: PD404182 100 nM; for inhibitory effect compared with other substances / number of live cells: rapamycin 50 nM; for number of live cells: 24 h and 48 h after addition, vs control, FIG. 5A, 5B; for T cell proliferation: activated human T cells
Method: Human T cells were stimulated with anti-human CD3 and CD28 for 24 hours. […] Flow cytometry was used to analyze the number of live cells and the number of divided cells. The results are shown in FIG. 5A and FIG. 5B, respectively.

[4] = system: mouse T cells; test: ROS generation in T cells (CellROX Green, flow cytometry); type: cell-based
Method: For flow cytometry, T cells were stained with 5 μM CellROX Green Reagent (Life Technologies) for 30 min at 37° C. in the presence or absence of ADMA or SDMA (5 μM), and then washed with 1×PBS once. MitoQ (100 nM) was added with ADMA and SDMA. Cells were resuspended in 300 μl of PBS before the analysis by flow cytometry.
Experimental Groups: ADMA alone, SDMA alone, or ADMA/SDMA (ADMA/SDMA represents the mixture of ADMA and SDMA herein) was used at the final concentration of 1 μM, MitoQ was used either at 10 nM or 100 nM.

[5] = system: human T cells; test: Human T cell in vitro proliferation assay (anti-CD3/anti-CD28, CellTrace Violet); type: cell-based; details: 1 μM; for proliferation of human T cells: P<0.001; for number of divided T cells: human T cells, after 4 days of culture, FIG. 2
Excerpt: Human T cell isolation and in vitro proliferation experiments: the use of blood from healthy adult blood donors was approved by the Ethics Committee of the Medical Faculty of Guangzhou Medical University, Guangzhou, China. Peripheral blood mononuclear cells (PBMCs) were isolated using Sepmate PBMC isolation tubes following the manufacturer's instructions (StemCell). CD3^+ human T cells were positively isolated by magnetic cell sorting (Miltenyi Biotec, Bergisch-Gladbach, Germany). Purified T cells were labeled with the proliferation dye CellTrace Violet according to the manufacturer's protocol. Then the cells (1×10^5 cells per well in flat bottom 96 well plate) were stimulated in vitro with immobilized anti-CD3 (5 μg/ml) and anti-CD28 (2 μg/ml) antibody (Biolegend, San Diego, USA), and expanded in RPMI1640 medium up to 5 days. Dilution of CellTrace Violet, indicating proliferation, was then evaluated by flow cytometry.

[6] = system: human T cells; test: DMGV human T cell proliferation (anti-CD3/anti-CD28 activation); type: cell-based; details: 3 days, FIG. 6D
Method: (§1) Mouse or human T cells were activated by anti-CD3 and anti-28 antibodies with none, DMGV (10 μM), or DMGV+MitoQ (100 nM) for 3 days and proliferation was measured by flow cytometry. The results are shown in FIG. 6C and FIG. 6D, respectively.

[7] = system: mouse splenic T cells; test: DMGV-induced ROS in mouse T cells (flow cytometry); type: cell-based; details: 1 h, FIG. 6A
Method: (§2) DMGV was synthesized as described in the literature (for specific preparation procedures, refer to J. Mass Spectrom. 2012, 47, 1594; Anal. Biochem. 2011, 419, 234). Mouse and human T cells were treated with none, or DMGV (10 μM), or DMGV+MitoQ (100 nM) for 1 h and ROS was measured by flow cytometry. The results are shown in FIG. 6A and FIG. 6B, respectively.

[8] = system: T cells; test: Effect of MitoQ on T cell proliferation in vitro with ADMA/SDMA; type: cell-based, mouse; details: MitoQ 100 nM + ADMA/SDMA 1 μM vs ADMA/SDMA group; 3 days; FIG. 4D
Method: After incubating MitoQ and ADMA/SDMA together with T cells up to 3 days, flow cytometry was used to investigate the effect on the T cells proliferation in vitro.
Experimental groups: Control, ADMA/SDMA (1 μM), and ADMA/SDMA (1 μM)+MitoQ (100 nM).

[9] = system: human peripheral T cells; test: DMGV-induced ROS in human T cells (flow cytometry); type: cell-based; details: 1 h, FIG. 6B
Method: as §2

[10] = system: SKG mice arthritis; test: Arthritis in beta-glucan injected SKG mice; type: in vivo; details: SKG mice with score 8 or above; DMGV 750 μg/mouse in the peritoneum up to 50 days; N=7, P=0.0006 (2-way ANOVA); FIG. 7
Method: SKG mice (purchased from CLEA Japan, Inc.) develop arthritis because a mutation in the ZAP-70 gene, which causes activation of T cells. SKG mice were injected with beta-glucan (30 mg/mouse, Sigma) to accelerate development of arthritis and the arthritis score was calculated as described in the literature (for specific preparation procedures, refer to Yoshitomi, H, J. Exp Med. 2005). Mice that reached the arthritis score of 8 or above in less than 2 months were selected and treated with DMGV (750 μg/mouse) twice a week up to 50 days.

[11] = system: mouse T cells; test: DMGV mouse T cell proliferation (anti-CD3/anti-CD28 activation); type: cell-based; details: 3 days, FIG. 6C
Method: as §1

[12] = ADMA or SDMA alone vs none, 2 hours, FIG. 4A

Compound | survival rate of cells [1] | number of divided T cells [1] | proliferation of mouse T cells [1] | B cells proliferation [2] | number of live B cells [2] | number of divided B cells [2] | inhibitory effect compared with other substances [3] | number of live cells [3] | T cell proliferation [3] | ROS [4, 12] | proliferation of human T cells [5] | number of divided T cells [5] | further results
CN(C)C(N)=NCCC[C@H](N)C(=O)O [ADMA, asymmetric dimethylarginine] | reduced the survival rate of cells | resulted in the reduction of the number of divided T cells | significantly inhibit the proliferation of mouse T cells | significantly inhibit B cells proliferation | reduced the number of live | reduced the number of live (FIG. 3A) and divided B cells | better than PD404182; also recorded: superior to the mTOR inhibitor rapamycin | the number of live cells declined | can inhibit T cell proliferation | ROS was significantly induced | inhibit proliferation of human T cells significantly | reduced the number of divided T cells | number of divided cells of T cells ([3]; vs control or rapamycin group): decreased significantly
COC1=C(OC)C(=O)C(CCCCCCCCCC[P+](c2ccccc2)(c2ccccc2)c2ccccc2)=C(C)C1=O [MitoQ, reference compound] |  |  |  |  |  |  |  |  |  |  |  |  | effect on inhibition of proliferation by DMGV ([6]; DMGV 10 μM plus MitoQ 100 nM): inhibited by MitoQ; effect on DMGV-induced ROS ([7]; DMGV 10 μM plus MitoQ 100 nM): inhibited by MitoQ; effect on inhibition of T cells proliferation by ADMA/SDMA [8]: significantly prevent the inhibitory effect of ADMA and SDMA on T cells proliferation; ROS ([4]; MitoQ (100 nM) with ADMA/SDMA vs ADMA/SDMA alone, FIG. 4B): decreased significantly; effect on DMGV-induced ROS ([9]; DMGV 10 μM plus MitoQ 100 nM): inhibited by MitoQ
dimethylguanidino valeric acid [DMGV] |  |  |  |  |  |  |  |  |  |  |  |  | proliferation ([6]; DMGV 10 μM): inhibited proliferation; arthritis score [10]: significantly decreased the arthritis score in all mice; ROS ([7]; DMGV 10 μM): induces ROS; proliferation [11]: inhibited proliferation; ROS ([9]; DMGV 10 μM): induces ROS
CN=C(NC)NCCC[C@H](N)C(=O)O [SDMA, symmetric dimethylarginine] | reduced the survival rate of cells | resulted in the reduction of the number of divided T cells | significantly inhibit the proliferation of mouse T cells | significantly inhibit B cells proliferation | reduced the number of live | reduced the number of live (FIG. 3A) and divided B cells |  |  |  | ROS was significantly induced | inhibit proliferation of human T cells significantly | reduced the number of divided T cells | 
N=C1Sc2ccccc2C2=NCCCN12 [PD404182, reference compound] |  |  |  |  |  |  | superior to the mTOR inhibitor rapamycin | the number of live cells declined | can inhibit T cell proliferation |  |  |  | 
